Data on 31 molecules can be found in patent publication US9284303B2, “Benzimidazole cannabinoid agonists bearing a substituted heterocyclic group” (priority 2006, dated 2016).

Structures can show the parent of a compound that is named as a salt. Where two headings read alike, the source gives them in different places.

The target in data set [1] is T1, human CB1 (hCB1) receptor (Homo sapiens, UniProt P21554).
T1 construct: expressed in transfected cells; host or cells: CHO-K1
In words: Inhibition of forskolin-activated cAMP production upon activation of hCB1 (HTRF), CHO-K1 cells. It counts as cell-based. The conditions noted are these: CB1 pEC50, hCB1-CHO-K1 cells, forskolin-activated cAMP, pEC50=-log(EC50). The protocol: (§1) Functional activity of the test compounds was assessed by measuring their potency to inhibit forskolin-activated cAMP production upon activation of the human CB1 (hCB1) or human CB2 (hCB2) receptor through homogenous time resolved fluorescence (HTRF) assays.
CHO-K1 cells stably transfected with either hCB1 or hCB2 were grown up to 80-90% confluence in T175 Falcon flasks in DMEM/NUT MIX F-12 culture medium complemented with 2% Solution A (5.10^6 IU/l penicillin G, 5 g/l streptomycin sulphate, 5.5 g/l pyruvate, 14.6 g/l L-glutamine, 1M NaOH) and 10% foetal calf serum. Before the experiments, medium was removed, cells were washed with PBS/EDTA (140 mM NaCl, 1 mM Naz-EDTA, 8 mM Na2HPO4.2H2O, 8.5 mM KH2PO4, 2.7 mM KCl, 21 mM glucose), resuspended in stimulation buffer (HBSS 1x, IBMX 1 mM, Hepes 5 mM, MgCl2 10 mM, BSA 0.1%, pH 7.4). Cells were diluted to a concentration of 8.10^5 cell/ml for hCB1 experiments and 10^6 cells/ml for hCB2 experiments. Assays were performed using the cAMP Dynamic HTRF kit (CIS bio international, France) according to the recommendations of the manufacturer.
For CB1, each well of a 96 flat bottom black polystyrene assay plate (Costar) was filled with 25 μl stimulation buffer containing 6 μM forskolin and either test compound (in 2% DMSO), 2% DMSO or 2 μM CP55490 (in 2% DMSO). Then, 25 μl of the diluted cells was added (20,000 cells/well). After 30 minutes incubation in dark at room temperature, 25 μl cAMP-XL665 and 25 μl anti-cAMP cryptate (both at a final dilution of 1/80) was added to the cells.
After equilibration of the reaction mixtures for 1 to 24 hours in dark at room temperature, fluorescence was measured at 665 nm and 620 nm using a Discovery microplate fluorescence counter (Perkin Elmer), and the signal ratio of 665 nm/620 nm was calculated. The signal ratios of the test compounds were expressed relative to the signal ratios of the DMSO control (maximal signal ratio, no inhibition of cAMP) and CP55490 or WIN55212-2 for hCB1 and hCB2, respectively (minimal signal ratio, maximal inhibition of cAMP). From the dose response curves generated for each test compound, the dose at which 50% of the maximal inhibition of cAMP level is observed (EC50, expressed in the Tables as pEC50=−log(EC50) values) and the level of inhibition reached with 10 μM of the test compound compared to CP55490 (for hCB1) or WIN55212-2 (for hCB2) was calculated.
(cAMP levels reflect the balance of adenylyl cyclase and phosphodiesterase activity.)

For data set [2], the target named is T2, human CB2 (hCB2) receptor (Homo sapiens, UniProt P34972).
T2 construct: expressed in transfected cells; host or cells: CHO-K1
In words: Inhibition of forskolin-activated cAMP production upon activation of hCB2 (HTRF), CHO-K1 cells. The following applies: for ratio CB2 agonism over CB1 agonism: Table C-1, selectivity hCB2 over hCB1; for ratio CB2 over CB1 agonism: Table C-3, comparison of art compounds A to E with compounds of the invention; for EC50: forskolin-activated cAMP, pEC50=-log(EC50). It counts as cell-based. The protocol: as §1
Before the experiments, medium was removed, cells were washed with PBS/EDTA (140 mM NaCl, 1 mM Naz-EDTA, 8 mM Na2HPO4.2H2O, 8.5 mM KH2PO4, 2.7 mM KCl, 21 mM glucose), resuspended in stimulation buffer (HBSS 1x, IBMX 1 mM, Hepes 5 mM, MgCl2 10 mM, BSA 0.1%, pH 7.4). Cells were diluted to a concentration of 8.10^5 cell/ml for hCB1 experiments and 10^6 cells/ml for hCB2 experiments. Assays were performed using the cAMP Dynamic HTRF kit (CIS bio international, France) according to the recommendations of the manufacturer.
Then, 20 μl of the diluted hCB2-CHO-K1 cells was added (20,000 cells/well). After 30 minutes incubation in dark at room temperature, 10 μl cAMP-XL665 and 10 μl anti-cAMP cryptate (both at a final dilution of 1/100) was added to the cells.

[3] abbreviates: hCB2-CHO-K1 cells, read-out: CB2 pEC50 (converted).

T1 sequence (P21554 whole entry): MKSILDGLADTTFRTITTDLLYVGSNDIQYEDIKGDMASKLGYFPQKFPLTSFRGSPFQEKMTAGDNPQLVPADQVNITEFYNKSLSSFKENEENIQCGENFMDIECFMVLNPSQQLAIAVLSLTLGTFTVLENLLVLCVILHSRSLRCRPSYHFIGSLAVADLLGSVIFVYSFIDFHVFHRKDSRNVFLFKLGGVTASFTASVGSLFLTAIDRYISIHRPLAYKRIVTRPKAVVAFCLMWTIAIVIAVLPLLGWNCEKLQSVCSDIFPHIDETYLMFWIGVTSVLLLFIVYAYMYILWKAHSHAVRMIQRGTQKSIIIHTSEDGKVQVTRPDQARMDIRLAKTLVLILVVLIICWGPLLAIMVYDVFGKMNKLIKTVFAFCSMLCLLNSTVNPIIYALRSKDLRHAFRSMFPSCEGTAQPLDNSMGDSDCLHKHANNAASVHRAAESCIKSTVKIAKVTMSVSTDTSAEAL
T2 sequence (P34972 whole entry): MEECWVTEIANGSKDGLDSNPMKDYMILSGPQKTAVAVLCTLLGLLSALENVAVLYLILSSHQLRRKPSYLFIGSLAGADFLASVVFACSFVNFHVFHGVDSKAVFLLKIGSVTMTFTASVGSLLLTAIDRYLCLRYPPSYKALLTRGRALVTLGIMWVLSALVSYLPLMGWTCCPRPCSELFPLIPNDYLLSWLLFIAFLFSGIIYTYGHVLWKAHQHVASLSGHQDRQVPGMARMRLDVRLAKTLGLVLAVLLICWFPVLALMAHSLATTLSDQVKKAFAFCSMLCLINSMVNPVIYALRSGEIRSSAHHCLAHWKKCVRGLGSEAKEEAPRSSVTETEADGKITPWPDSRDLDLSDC

For orientation: melting point means the temperature, or range, at which the solid turns liquid. For `CC(=O)N1CCC(Cn2c(C(C)(C)C)nc3cc(S(=O)(=O)c4ccnc(F)c4)ccc32)CC1`, the melting point was 193.9 °C.
As to `CC(C)(C)c1nc2cc(S(=O)(=O)c3ccnc(F)c3)ccc2n1CCCC(F)(F)F`, the melting point was 138.9 °C.
The same measure, in the same setting: as for `CC(C)(C)c1nc2cc(S(=O)(=O)c3ncc(C#N)s3)ccc2n1CCCC(F)(F)F`, the figure is 122 °C; as for `CC(C)(C)c1nc2cc(S(=O)(=O)c3ccnc(O)c3)ccc2n1CCCC(F)(F)F`, 277.5 °C; as for `CCOc1cc(S(=O)(=O)c2ccc3c(c2)nc(C(C)(C)C)n3CCCC(F)(F)F)ccn1`, 137.7 °C.
Consider `CC(C)(C)c1nc2cc(S(=O)(=O)c3ccc(C#N)s3)ccc2n1CC1CCOCC1`, for which the melting point came out at 156 °C.
The same measure, in the same setting: as for `CC(O)c1ccc(S(=O)(=O)c2ccc3c(c2)nc(C(C)(C)C)n3CC2CCOCC2)s1` (centres unmarked), the figure is 192 °C; as for `CC(C)(C)c1nc2cc(S(=O)(=O)c3ccc(S(N)(=O)=O)s3)ccc2n1CC1CCOCC1`, 259 °C.
`CC(C)(C)c1nc2cc(S(=O)(=O)c3ccnc(F)c3)ccc2n1CC1CCC1` (as salt: HCl) (hydrate or solvate) [Co. No. 136] had a melting point of 184.3 °C.
`CC(C)(C)c1nc2cc(S(=O)(=O)c3ccc(S(N)(=O)=O)s3)ccc2n1CC1CCOCC1` (as salt: HCl) [Co. No. 47]: the melting point fell in the range of 255 to 260 °C.
In the case of `CC(C)(C)c1nc2cc(S(=O)(=O)c3ccc(S(C)(=O)=O)s3)ccc2n1CC1CCOCC1` (as salt: HCl) [Co. No. 58], the melting point worked out at 224 °C.
The same measure, in the same setting: to `CC(C)(C)c1nc2cc(S(=O)(=O)c3ccc(C(=O)N4CCCC4)o3)ccc2n1CC1CCOCC1` (as salt: HCl) [Co. No. 74] belongs 108.5 °C.
On the same count and under the same terms, to `CC(C)(C)c1nc2cc(S(=O)(=O)c3ccnc(C#N)c3)ccc2n1CC1CCOCC1` (as salt: methanesulfonate) [Co. No. 93] belongs 215.7 °C.
Regarding `CC(C)(C)c1nc2cc(S(=O)(=O)c3ccc(O)nc3)ccc2n1CC1CCOCC1` [Co. No. 1], the melting point was 251 °C. This molecule showed an EC50 in data set [1] above 10000 nM. Moreover, in data set [2], the “ratio CB2 agonism over CB1 agonism” value is given as above 1995 and the “ratio CB2 over CB1 agonism” value is listed as 1995. Moreover, the EC50 in data set [2] (setting [3]) was 5.01 nM.
With `CC(C)(C)c1nc2cc(S(=O)(=O)c3cc[n+]([O-])cc3)ccc2n1CC1CCOCC1` [Co. No. 3], the melting point was found to be 203 °C. In addition, the EC50 in data set [1] was 692 nM. Also, the EC50 in data set [2] (setting [3]) was 1.74 nM.
`CC(=O)c1ccc(S(=O)(=O)c2ccc3c(c2)nc(C(C)(C)C)n3CC2CCOCC2)nc1` [Co. No. 4] showed a melting point above 120 °C. In addition, the EC50 in data set [1] was 3240 nM. In data set [2], the “ratio CB2 agonism over CB1 agonism” value is 1679 and the “ratio CB2 over CB1 agonism” value is reported as 1679. In addition, the EC50 in data set [2] (setting [3]) is 1.91 nM.
The molecule `Cc1nc(-c2csc(S(=O)(=O)c3ccc4c(c3)nc(C(C)(C)C)n4CC3CCOCC3)c2)no1` [Co. No. 5] returned a melting point of 192 to 193 °C. Further, in data set [1], the EC50 is 257 nM. Moreover, the “ratio CB2 agonism over CB1 agonism” value in data set [2] was 676. Besides, the EC50 in data set [2] (setting [3]) was 0.372 nM.
For `CC(C)(C)c1nc2cc(S(=O)(=O)c3ccc(S(=O)(=O)N4CCOCC4)s3)ccc2n1CC1CCOCC1` [Co. No. 7], in that order: 198 °C, above 10000 nM, above 5495 and 1.82 nM.
For the molecule `CC(C)(C)c1nc2cc(S(=O)(=O)c3ccnc(O)c3)ccc2n1CC1CCOCC1` [Co. No. 8], the melting point was above 300 °C. Also, the EC50 in data set [1] was 4680 nM. Moreover, in data set [2], the “ratio CB2 agonism over CB1 agonism” value was 1514 and the “ratio CB2 over CB1 agonism” value came out at 1514. Moreover, the EC50 in data set [2] (setting [3]) is 3.09 nM.
On to `CC(C)(C)c1nc2cc(S(=O)(=O)c3cc(Cl)cc(Cl)n3)ccc2n1CC1CCOCC1` [Co. No. 10], for which the melting point turned out to be 137.43 °C. This molecule also gave an EC50 in data set [1] of 9550 nM. Further, in data set [2], the “ratio CB2 agonism over CB1 agonism” value is 12883 and the “ratio CB2 over CB1 agonism” value stood at 12883. Further, in data set [2] (setting [3]), the EC50 is 0.741 nM.
Regarding `COc1ccc(S(=O)(=O)c2ccc3c(c2)nc(C(C)(C)C)n3CC2CCOCC2)nn1` [Co. No. 11], the melting point was 174 to 180 °C. Moreover, the EC50 in data set [1] is 60.3 nM. For the same molecule, the “ratio CB2 agonism over CB1 agonism” value in data set [2] stood at 48. In data set [2] (setting [3]), the EC50 is 1.26 nM.
`CC(C)(C)c1nc2cc(S(=O)(=O)c3ccc(C(N)=O)o3)ccc2n1CC1CCOCC1` [Co. No. 12] registered a melting point of 234.8 °C. In data set [1], this molecule gave an EC50 of 468 nM. Besides, in data set [2], the “ratio CB2 agonism over CB1 agonism” value came to 302 and the “ratio CB2 over CB1 agonism” value is 302. Also, the EC50 in data set [2] (setting [3]) is 1.55 nM.
Molecule `CC(C)(C)c1nc2cc(S(=O)(=O)c3ccnc(C(N)=O)c3)ccc2n1CC1CCOCC1` [Co. No. 16] showed a melting point of 247.1 °C. This molecule also showed an EC50 in data set [1] of 851 nM. The “ratio CB2 agonism over CB1 agonism” value in data set [2] was determined as 359. The EC50 in data set [2] (setting [3]) was 2.34 nM.
With `CC(C)(C)c1nc2cc(S(=O)(=O)c3ccnc(C#N)c3)ccc2n1CC1CCOCC1` [Co. No. 17], the melting point worked out at 201.2 °C. This molecule gave an EC50 in data set [1] of 9330 nM. In addition, the “ratio CB2 agonism over CB1 agonism” value in data set [2] (listed as 17) stood at 5821. Moreover, in data set [2], the “ratio CB2 over CB1 agonism” value turned out to be 5821. Besides, the EC50 in data set [2] (setting [3]) is 1.58 nM.
Turning to `CC(C)(C)c1nc2cc(S(=O)(=O)c3ccnc(Cl)c3)ccc2n1CC1CCOCC1` [Co. No. 18], the melting point came to 201 °C. The same molecule gave an EC50 in data set [1] of 631 nM. In data set [2], the “ratio CB2 agonism over CB1 agonism” value turned out to be 933. Besides, the EC50 in data set [2] (setting [3]) was 0.676 nM.
Take `CC(C)(C)c1nc2cc(S(=O)(=O)c3cc[n+]([O-])cc3C(F)(F)F)ccc2n1CC1CCOCC1` [Co. No. 21]: the melting point is 205.8 °C. For the same molecule, in data set [2] (setting [3]), the EC50 is 3.8 nM.
For the molecule `CC(O)c1ccc(S(=O)(=O)c2ccc3c(c2)nc(C(C)(C)C)n3CC2CCOCC2)nc1` (centres unmarked) [Co. No. 42], the melting point is 177 to 179 °C. In addition, the EC50 in data set [2] (CB2 pEC50, hCB2-CHO-K1 cells) was 0.631 nM. Further, the EC50 in data set [2] (setting [3]) was 3.98 nM.
Regarding `CC(C)(C)c1nc2cc(S(=O)(=O)c3ccn(/C(F)=C\I)c(=O)c3)ccc2n1CC1CCOCC1` [Co. No. 91], the melting point turned out to be 164.4 °C. Also, the “ratio CB2 agonism over CB1 agonism” value in data set [2] is recorded as 1995. The EC50 in data set [2] (setting [3]) is 5.01 nM.
With `CO[C@H]1CC[C@H](Cn2c(C(C)(C)C)nc3cc(S(=O)(=O)c4ccnc(F)c4)ccc32)CC1` [Co. No. 160], the figures for the EC50 in data set [1] and in data set [2] (setting [3]) were above 10000 nM and 4.27 nM, respectively. In addition, the “ratio CB2 agonism over CB1 agonism” value in data set [2] is on record as above 2344.
For `COCCCn1cc(S(=O)(=O)c2ccc3c(c2)nc(C(C)(C)C)n3CC2CCOCC2)cn1` [Co. No. 161], in that order: 5250 nM, 1.82 nM and 2951.
For `CC(C)(C)c1nc2cc(S(=O)(=O)c3ccnc(F)c3)ccc2n1CCC1OCCO1` [Co. No. 165], in that order: above 10000 nM, 10.7 nM and above 923.
